Test results as given in US5552444A, “Ring-substituted 2-amino-1,2,3,4-tetra-hydronaphthalenes, 3-aminochromanes, and 3-aminothiochromanes” (Eli Lilly and Company, priority 1995, dated 1996).
Counter-ions that a name gives are not always drawn.

Each compound was assayed against T1, 5-HT1A receptor (Rattus norvegicus, UniProt P19327) (assay: Inhibition of 3H-8-OH-DPAT binding to rat cerebral cortex synaptosomal membranes (binding at 5HT1a in vitro)). Conditions: not given.
T1 construct: synaptosomal membranes isolated from cerebral cortex; from tissue; host or cells: rat cerebral cortex, crude synaptosomal membranes (male Sprague-Dawley rats, Harlan Industries)
T1 sequence (P19327 1-422): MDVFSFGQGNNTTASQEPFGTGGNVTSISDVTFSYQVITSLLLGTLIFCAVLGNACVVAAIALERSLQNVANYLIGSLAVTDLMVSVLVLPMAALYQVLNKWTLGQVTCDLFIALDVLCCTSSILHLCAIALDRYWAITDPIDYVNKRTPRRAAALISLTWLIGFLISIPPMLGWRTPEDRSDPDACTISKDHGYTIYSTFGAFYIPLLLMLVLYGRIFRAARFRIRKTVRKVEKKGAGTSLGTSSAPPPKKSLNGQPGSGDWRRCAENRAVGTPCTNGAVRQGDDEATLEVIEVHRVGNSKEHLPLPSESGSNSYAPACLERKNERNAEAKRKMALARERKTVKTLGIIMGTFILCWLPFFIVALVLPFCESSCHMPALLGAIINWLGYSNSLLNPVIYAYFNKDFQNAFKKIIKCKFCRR
Set-up: species or system rat (male Sprague-Dawley)
Experimental: This general procedure is set forth in Wong et al., J. Neural Transm. 71:207-218 (1988).
Male Sprague-Dawley rats (110-150 g) from Harlan Industries (Cumberland, Ind.) were fed a Purina Chow ad libitum for at least 3 days before being used in the studies. Rats were killed by decapitation. The brains were rapidly removed, and the cerebral cortices were dissected out at 4° C.
Brain tissues were homogenized in 0.32M sucrose. After centrifugation at 1000×g for 10 min and then at 17000×g for 20 min, a crude synaptosomal fraction was sedimented. The pellet was suspended in 100 vol of 50 mM Tris-HCl, pH 7.4, incubated at 37° C. for 10 min, and centrifuged at 50000×g for 10 min. The process was repeated and the final pellet was suspended in ice-chilled 50 mM Tris-HCl, pH 7.4. By the radioligand binding method, sites specifically labeled by tritiated 8-hydroxy-2-dipropylamino-1,2,3,4-tetrahydronaphthalene (^3 H-8-OH-DPAT) have been identified as 5-HT1A receptors.
Binding of (^3 H-8-OH-DPAT) was performed according to the previously described method [Wong et al., J. Neural Transm. 64:251-269 (1985)]. Briefly, synaptosomal membranes isolated from cerebral cortex were incubated at 37° C. for 10 min. in 2 ml of 50 mM Tris-HCl, pH 7.4; 10 μM pargyline; 0.6 mM ascorbic acid; 0.4 nM ^3 H-8-OH-DPAT; and from 1 to 1000 nM of test compound. Binding was terminated by filtering samples under reduced pressure through glass fiber (GFB) filters. The filters were washed twice with 5 ml of ice cold buffer and placed in scintillation vials with 10 ml of PCS (Amersham/Searle) scintillation fluid. Radioactivity was measured with a liquid scintillation spectrometer. Unlabeled 8-OH-DPAT at 10 μM was also included in separate samples to establish non-specific binding. Specific binding of ^3 H-8-OH-DPAT is defined as the difference of radioactivity bound in the absence and in the presence of 10 μM unlabeled 8-OH-DPAT.

Compound	IC50
CCCN(CCC)C1CCc2cccc(C(=O)C(C)(C)C)c2C1 (stereo not drawn) [Example 7, 2-Di-n-propylamino-8-dimethylpropionyl-1,2,3,4-tetrahydronaphthalene, hydrobromide salt]	9 nM

Same assay, conditions: rat cerebral cortex membranes; 0.4 nM 3H-8-OH-DPAT; 37° C., 10 min; pH 7.4; read-out: IC50, concentration of test compound required to inhibit the binding of 3H-8-OH-DPAT by 50%

Compound	IC50
CCCCC(=O)c1cccc2c1CC(N(CCC)CCC)CC2 (stereo not drawn) [Example 1, 2-Di-n-propylamino-8-pentanoyl-1,2,3,4-tetrahydronaphthalene, oxalate salt]	2.2 nM
CCCN(CCC)C1CCc2cccc(C(=O)C(F)(F)F)c2C1 (stereo not drawn) [Example 2, 2-Di-n-propylamino-8-trifluoroacetyl-1,2,3,4-tetrahydronaphthalene, hydrobromide salt]	29 nM
CCCN(CCC)C1CCc2cccc(C(=O)CC)c2C1 (stereo not drawn) [Example 3, 2-Di-n-propylamino-8-propionyl-1,2,3,4-tetrahydronaphthalene, oxalate salt]	0.8 nM
CCCC(=O)c1cccc2c1CC(N(CCC)CCC)CC2 (stereo not drawn) [Example 4, 2-Di-n-propylamino-8-butanoyl-1,2,3,4-tetrahydronaphthalene,hydrobromide salt]	3 nM
CCCN(CCC)C1CCc2cccc(C(=O)C(C)C)c2C1 (stereo not drawn) [Example 5, 2-Di-n-propylamino-8-(α-methylpropionyl)-1,2,3,4-tetrahydronaphthalene, hydrobromide salt]	0.4 nM
CCCN(CCC)C1CCc2cccc(C(=O)CC(C)C)c2C1 (stereo not drawn) [Example 6, 2-Di-n-propylamino-8-(β-methylbutyryl)-1,2,3,4-tetrahydronaphthalene,hydrobromide salt]	0.4 nM
CCCN(CCC)C1CCc2cccc(C(=O)C3CCCCC3)c2C1 (stereo not drawn) [Example 8, 2-Di-n-propylamino-8-cyclohexanecarbonyl-1,2,3,4-tetrahydronaphthalene, oxalate salt]	0.5 nM
CCCN(CCC)C1CCc2cccc(C(=O)c3ccccc3)c2C1 (stereo not drawn) [Example 9, 2-Di-n-propylamino-8-benzoyl-1,2,3,4-tetrahydronaphthalene, tosylate salt]	3.7 nM
CCCN(CCC)C1CCc2cccc(C(=O)c3ccccc3F)c2C1 (stereo not drawn) [Example 11, 2-Di-n-propylamino-8-(o-fluorobenzoyl)-1,2,3,4-tetrahydronaphthalene, p-toluenesulfonic acid salt]	0.8 nM
CCCN(CCC)C1CCc2cccc(C(=O)COC)c2C1 (stereo not drawn) [Example 12, 2-Di-n-propylamino-8-(methoxyacetyl)-1,2,3,4-tetrahydronaphthalene oxalate]	5.8 nM
CCCN(CCC)C1CCc2cccc(C(C)=O)c2C1 (stereo not drawn) [Example 13, 2-Di-n-propylamino-8-acetyl-1,2,3,4-tetrahydronaphthalene]	0.8 nM
